Paper PMC10823475, “Design, Synthesis, and Evaluation of Inhibitors of Hedgehog Acyltransferase” (Journal of Medicinal Chemistry, 2024)
“And” between values parts separate entries of the source, which are not always exact repeats. Identical values can stand only once.

Assays:
purified HHAT = molecular target: T1, purified HHAT (Homo sapiens, UniProt Q5VTY9); test: Acyl-cLIP assay, inhibition of purified HHAT; assay type: biochemical; details: for IC50: purified HHAT, read-out: Acyl-cLIP Assay IC50 (CI95); for LLEAcyl-cLIP: from Acyl-cLIP IC50 and clogDpH7.4
T1 construct: made in house
Procedure, shortened: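 Percent inhibition was first taken at 50 μM and 25 μM, then IC50 derived from variable-slope dose-response curves of initial rate constants, normalized against DMSO and HHAT-free samples. Reaction: purified DDM-solubilized HHAT transfers palmitoyl from palmitoyl-CoA onto a FAM-SHH peptide (MES, pH 6.5), monitored 30 min by fluorescence anisotropy.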

[1] = MTS assay, cytotoxicity (72 h); assay type: cell-based; details: human, HEK293a SHH+ cells, 72 h; for CC50 at 72 h: read-out: MTS Assay (HEK293a SHH+) CC50 (CI95)
Procedure, shortened: (§1)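 Cells plated at 5000/well, cultured 24 h, then exposed to analogues (0.14–100 μM final) in DMEM/10% FBS for 72 h. MTS/PMS added for 3 h at 37 °C and absorbance read at 490 nm; data normalised to DMSO vehicle and puromycin (2 μg/mL) wells, curves fitted with a variable-slope sigmoidal model.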

HEK293a SHH+ cells = test: MTS assay, cytotoxicity (72 h); assay type: cell-based; details: for CC50: 72 h, read-out: MTS Assay (HEK293a SHH+) CC50 (CI95)
Procedure, shortened: as §1

[2] = Microsomal incubations, mouse liver microsomes; assay type: in vitro ADME; details: 1 μM
Description: (§2) Metabolic stability assays were performed using a Microlab Star liquid handling workstation (Hamilton Robotics, Bonaduz, Switzerland). Test compounds (1 μM, 1% DMSO) were preincubated at 37 °C for 10 min in 0.5 mg/mL female CD1 mouse and mixed gender human liver microsomes in 10 mM phosphate buffered saline (PBS; Sigma-Aldrich Company Ltd. (Dorset, UK)). Microsomes were purchased either from Sekisui XenoTech, LLC (Kansas City, USA) or BioreclamationIVT (Frankfurt Am Main, Germany). Reactions were initiated by the addition of NADPH (final concentration 1 mM). At 0, 15, and 30 min, aliquots were removed from each incubation and quenched in 3 volumes of ice-cold methanol containing olomoucine (Sigma-Aldrich, Dorset, UK) as an internal standard. […] The percentage metabolized was calculated by comparing peak area ratio (peak area test compound/peak area of internal standard) at t = 15 and 30 min versus t = 0 min.

[3] = Microsomal incubations, human liver microsomes; assay type: in vitro ADME; details: 1 μM
Description: as §2

[4] = PAMPA parallel artificial membrane permeability assay; details: for recovery at 16 h, 10 µM / Papp at 16 h, 10 μM: PAMPA
Description: (§3) Passive diffusion was estimated using the PAMPA method. […] The donor plate was a MultiScreen-IP Plate with 0.45 μm hydrophobe Immobilon-P Membrane (Millipore, #MAIPNTR10) and the acceptor plate was a MultiScreen 96-well Transport Receiver Plate (Millipore, #MATRNPS50). […] Acceptor pH was 7.4. All samples were analyzed against an external, matrix-matched, standard curve by LC-MS/MS with a Waters (Elstree, Herts. UK) Acquity H-class LC system coupled to a Waters TQ-S mass spectrometer. Permeability values (cm/s) were calculated using the following equation: [drawing 2] and VD = volume of donor; VA = volume of acceptor; area = surface area of the membrane · porosity.

[5] = system: HH signaling (HEK293a SHH+ conditioned media on SHH-Light2 cells); test: Light2 dual-luciferase cell-based HH signaling assay (Firefly); details: Firefly luciferase, Light2 cells; read-out: HH signaling inhibition EC50 (CI95)
Description: Subsequently, the effect of analogues on HH signaling was investigated using a cellular luciferase reporter assay. Light2 cells derived from NIH3T3 cells constitutively express Renilla luciferase as an internal control for cell density alongside Firefly luciferase under the control of a HH-responsive Gli promoter.[43] HEK293a SHH^+ cells were incubated with varying inhibitor concentrations and SHH-containing conditioned media transferred to the NIH3T3-Light2 cells to mimic paracrine signaling[30],[35] (Figure 6A).
The Light2 cell-based signaling assay has been described previously.[35] Briefly, HEK293a SHH^+ cells were plated at 120,000 cells/well of a 12-well plate in a volume of 1 mL/well and cultured as described above. After 24 h, cells were washed with PBS, followed by addition of 1 mL of media containing 0.2% DMSO or varying inhibitor concentrations in DMSO (0.041–30 μM final). Additionally, SHH-Light2 cells were plated at 20,000 cells/well of a 96-well plate in 50 μL media. After another 24 h, 300 μL of the conditioned media were collected from each well of the treated HEK293a SHH^+ cells, centrifuged at 1000g for 10 min to remove detached cells and split into three wells of the SHH-Light2 cells (100 μL/well; 150 μL final volume in each well). The treated Light2 cells were cultured for another 48 h and subsequently washed with PBS. Firefly and Renilla luciferase activity was measured using the Dual-Luciferase reporter system (Promega Corporation, USA). Then 20 μL of 1× passive lysis buffer were added to each well. After 30 min at RT, 5 μL of each lysate were transferred to a white opaque 96-well plate. Then 20 μL/well of luciferase assay reagent II was added and the luminescence immediately recorded using a SpectraMax i3x plate reader (Molecular Devices LLC). Subsequently, 20 μL/well of 1× Stop&Glo substrate in Stop&Glo buffer was added and the luminescence immediately recorded for a second time. Data was evaluated using a “sigmoidal dose response (variable slope)” model in GraphPad Prism 5 (GraphPad Software, Inc.). The luminescence signal of the Firefly luciferase was normalized to the DMSO vehicle (100%) and the unconditioned media (0%) controls.

in vitro = details: PAMPA
Description: as §3

[6] = pH 5, PAMPA Papp pH 5, donor pH 5, 10 µM
[7] = pH 5, PAMPA Permeability Class pH 5, donor pH 5, 10 µM
[8] = pH 6.5, PAMPA Papp pH 6.5, donor pH 6.5, 10 µM
[9] = pH 6.5, PAMPA Permeability Class pH 6.5, donor pH 6.5, 10 µM
[10] = pH 7.4, PAMPA Papp pH 7.4, donor pH 7.4, 10 µM

T1 sequence (Q5VTY9 whole entry): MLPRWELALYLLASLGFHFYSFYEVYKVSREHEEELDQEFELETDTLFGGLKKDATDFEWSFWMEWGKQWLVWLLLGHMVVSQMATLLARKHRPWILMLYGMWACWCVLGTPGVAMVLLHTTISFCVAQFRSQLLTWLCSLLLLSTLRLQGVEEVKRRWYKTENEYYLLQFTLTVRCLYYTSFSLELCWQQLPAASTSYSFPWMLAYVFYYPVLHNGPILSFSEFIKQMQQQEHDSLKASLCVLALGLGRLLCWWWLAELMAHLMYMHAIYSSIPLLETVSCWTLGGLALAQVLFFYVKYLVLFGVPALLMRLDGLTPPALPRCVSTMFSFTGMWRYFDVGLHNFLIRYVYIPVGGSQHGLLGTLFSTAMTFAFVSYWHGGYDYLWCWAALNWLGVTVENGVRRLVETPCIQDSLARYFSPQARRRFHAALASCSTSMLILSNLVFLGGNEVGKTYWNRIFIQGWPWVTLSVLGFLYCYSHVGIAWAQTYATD

SMILES | inhibition at 25 µM (purified HHAT) [%] | inhibition at 50 µM (purified HHAT) [%] | IC50 (purified HHAT) [µM] | MLM % metabolized after 15 min [2] | MLM % metabolized after 30 min [2] [%] | HLM % metabolized after 15 min [3] [%] | HLM % metabolized after 30 min [3] [%] | recovery at 16 h, 10 µM ([4]; pH 5) [%] | Papp at 16 h, 10 μM [4, 6] [×10⁻⁶ cm/s] | Papp at 16 h, 10 μM [4, 7] [×10⁻⁶ cm/s] | recovery at 16 h, 10 µM ([4]; pH 6.5) [%] | Papp at 16 h, 10 μM [4, 8] [×10⁻⁶ cm/s] | Papp at 16 h, 10 μM [4, 9] [×10⁻⁶ cm/s] | recovery at 16 h, 10 µM ([4]; pH 7.4) [%] | Papp at 16 h, 10 μM [4, 10] [×10⁻⁶ cm/s] | LLEAcyl-cLIP (purified HHAT) | CC50 at 72 h [1] [µM] | viability at 72 h, 12.5 µM [1] [%] | viability at 72 h, 25 µM [1] [%] | CC50 (HEK293a SHH+ cells) [µM] | other results
CC(C)CNCC(=O)N1CCc2ccccc2C1c1ccccc1 (stereo in doubt) [Compound 43, (R)-2-((2-Methylpropyl)amino)-1-(1-phenyl-3,4-dihydroisoquinolin-2(1H)-yl)ethan-1-one] | 88 ± 3 | 93 ± 3 | 2.77 |  |  |  |  |  |  |  |  |  |  |  |  | 3.64 | > 50 | 98 ± 2 | 97 ± 3 | > 100 | fold increase in potency compared to racemate (purified HHAT; enantiomer vs racemate (29 vs 21, 30 vs 24, 43 vs 39)): 2 fold; decrease in cell viability / cell survival (HEK293a SHH+ cells; 12.5 μM): < 30%; EC50 [5]: 0.8 µM
Cc1cc(=O)n(-c2ccccc2)n1C [Antipyrine] |  |  |  |  |  |  |  |  |  |  |  |  |  |  |  |  |  |  |  |  | recovery at 16 h, 10 µM (in vitro; pH 5): 109%; Papp at 16 h, 10 μM (in vitro; pH 5, PAMPA Papp pH 5): 6.5 ×10⁻⁶ cm/s; Papp at 16 h, 10 μM (in vitro; pH 5, PAMPA Permeability Class pH 5): 5 to 20 ×10⁻⁶ cm/s; recovery at 16 h, 10 µM (in vitro; pH 6.5): 119%; Papp at 16 h, 10 μM (in vitro; pH 6.5, PAMPA Papp pH 6.5): 6.6 ×10⁻⁶ cm/s; Papp at 16 h, 10 μM (in vitro; pH 6.5, PAMPA Permeability Class pH 6.5): 5 to 20 ×10⁻⁶ cm/s; recovery at 16 h, 10 µM (in vitro; pH 7.4): 145%; Papp at 16 h, 10 μM (in vitro; pH 7.4, PAMPA Papp pH 7.4): 7.3 ×10⁻⁶ cm/s; Papp at 16 h, 10 μM (in vitro; pH 7.4, PAMPA Permeability Class pH 7.4): 5 to 20 ×10⁻⁶ cm/s
CCC(C)CNCC(=O)N1CCc2sccc2C1c1ccccc1OC (stereo not drawn) [Compound 32, 1-(4-(2-Methoxyphenyl)-6,7-dihydrothieno[3,2-c]pyridin-5(4H)-yl)-2-((2-methylbutyl)amino)ethan-1-one] | 66 ± 2 | 79 ± 2 | 8.09 |  |  |  |  |  |  |  |  |  |  |  |  | 3.00 | 7.6 | 55 ± 3 | 42 ± 2 |  | toxicity to HEK293a SHH+ cells (HEK293a SHH+ cells): toxic; EC50 [5]: > 30 µM

Second part, led by results:

inhibition at 25 µM (purified HHAT) [%] | inhibition at 50 µM (purified HHAT) [%] | IC50 (purified HHAT) [µM] | MLM % metabolized after 15 min [2] | MLM % metabolized after 30 min [2] [%] | HLM % metabolized after 15 min [3] [%] | HLM % metabolized after 30 min [3] [%] | recovery at 16 h, 10 µM ([4]; pH 5) [%] | Papp at 16 h, 10 μM [4, 6] [×10⁻⁶ cm/s] | Papp at 16 h, 10 μM [4, 7] [×10⁻⁶ cm/s] | recovery at 16 h, 10 µM ([4]; pH 6.5) [%] | Papp at 16 h, 10 μM [4, 8] [×10⁻⁶ cm/s] | Papp at 16 h, 10 μM [4, 9] [×10⁻⁶ cm/s] | recovery at 16 h, 10 µM ([4]; pH 7.4) [%] | Papp at 16 h, 10 μM [4, 10] [×10⁻⁶ cm/s] | LLEAcyl-cLIP (purified HHAT) | SMILES | CC50 at 72 h [1] [µM] | viability at 72 h, 12.5 µM [1] [%] | viability at 72 h, 25 µM [1] [%] | CC50 (HEK293a SHH+ cells) [µM] | other results
55 ± 7 | 53 ± 3 | > 25 | 94.6% and > 90% | 99.8 | 45.2 | 55.9 | 95 | > 200 | > 20 | 92 | > 200 | > 20 | 89 | > 200 |  | CC(=O)N1CCc2ccccc2C1c1ccccc1 (stereo not drawn) [Compound 37, 1-(1-Phenyl-3,4-dihydroisoquinolin-2(1H)-yl)ethan-1-one] | 47.9 | 101 ± 5 | 94 ± 6 | > 50 | Papp at 16 h, 10 μM ([4]; pH 7.4, PAMPA Permeability Class pH 7.4, donor pH 7.4, 10 µM): > 20 ×10⁻⁶ cm/s; PAMPA permeability ([4]; over the full pH range tested): high permeability; PAMPA passive permeability ([4]; pH 7.4): high passive permeability
91 ± 5 | 95 ± 5 | 7.01 | 100.0% and > 90% | 100.0 | 30.3 | 49.2 | 91 | 1.3 | < 5 | 45 | 24.4 | > 20 | 17 | 53.9 | 2.82 | CCC(C)CNCC(=O)N1CCc2ccccc2C1c1ccccc1 (stereo not drawn) [Compound 38, 2-((2-Methylbutyl)amino)-1-(1-phenyl-3,4-dihydroisoquinolin-2(1H)-yl)ethan-1-one] | 8.1 | 69 ± 4 | 33 ± 6 |  | toxicity to HEK293a SHH+ cells (HEK293a SHH+ cells): toxic; PAMPA passive permeability ([4]; pH 7.4): high passive permeability
